For experiment [1], the target named is T1, hOx1R (Homo sapiens (Human), UniProt O43613). As to the kind of experiment: Calcium accumulation in cells (FLIPR), hOx1R. As to conditions: inhibition of orexin A induced calcium accumulation, Cheng and Prusoff correction. It is filed as cell-based. An outline of the steps:
(§1)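 Cells expressing human orexin 1 or 2 receptor, serum-deprived overnight, loaded with Fluo-4-AM (2 μM) plus 0.1 mM probenecid, pH 7.4 HEPES buffer with 1% BSA.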

For experiment [2], the target named is T2, hOx2R (Homo sapiens (Human), UniProt O43614). The experiment in a line: Calcium accumulation in cells (FLIPR), hOx2R. The conditions noted are these: inhibition of orexin A induced calcium accumulation, Cheng and Prusoff correction. The format is cell-based. A digest of the protocol:
as §1

For experiment [3], the target named is T1, hOx1R. As to the kind of experiment: Radioligand binding assay, [125I]orexin A, hOx1R. As to conditions: radioligand [125I]orexin A, competition. Here is the method: (§2) For crude cell membrane preparations, cells (CHO, Chinese hamster ovary or HEK, human embryonic kidney) expressing human orexin 1 or human orexin 2 receptors, were washed with HEPES (10 mM, pH 7.5), scraped off the culture plates with the same buffer, and centrifuged at 4° C. for 5 min at 2500×g. The cell pellet was either stored at −80° C. or used directly. Before the experiments, cell membranes were re-suspended in binding assay buffer (10 mM HEPES, 0.5% (w/v) bovine serum albumin, pH 7.5) by homogenisation with a Polytron homogeniser at 50 Hz for 20 s. Cell membranes were also used as made available by commercial providers.
(§3) In initial saturation experiments (to calculate Bmax), cell homogenates (150 μl) were incubated with 25-300 pM of the radioligand ([^125I]orexin A, 50 μl), 8 concentrations in triplicates in the presence or absence Orexin A (1 μM, 50 μl) to define non specific binding. Bound radioactivity was measured, and data were analysed with the program XLFIT or Graphpad Prism. Protein concentration was determined according to the Bradford/BioRad Protein Assay Kit.
(§4) In competition experiments, cell homogenates (150 μl) were incubated in assay buffer (10 mM HEPES, pH 7.5, 0.5% (w/v) bovine serum albumin, 5 mM MgCl2, 1 mM CaCl2, and tween 0.05%) for 1 h at room temperature with about 100 pM of the radioligand ([^125I]orexin A, 2100 Ci/mmole, 50 μl), and with various concentrations of compounds of the invention (50 μl) in triplicates; non-specific binding was determined in the presence of Orexin A (1 μM). Reactions were terminated by vacuum filtration, 3 washes of ice cold wash buffer (Tris-HCl pH 7.4/10 mM, with NaCl 154 mM).

The target of experiment [4] is T2, hOx2R. The experiment in a line: Radioligand binding assay, [125I]orexin A, hOx2R. As to conditions: radioligand [125I]orexin A, competition. Here is the method:
as §2, §3, §4

The target in experiment [5] is T1, hOx1R. The experiment in a line: Radioligand binding assay, [3H]-SB649868, hOx1R. As to conditions: radioligand [3H]-SB649868, competition. The method, then: as §2
(§5) Bound radioactivity was measured, and data were analysed with the program XLFIT or Graphpad Prism. Protein concentration was determined according to the Bradford/BioRad Protein Assay Kit.
(§6) In competition experiments, cell homogenates (150 μl) were incubated in assay buffer (10 mM HEPES, pH 7.5, 0.5% (w/v) bovine serum albumin, 5 mM MgCl2, 1 mM CaCl2, and tween 0.05%) for 1 h at room temperature with about 1 nM of the radioligand [^3H]-SB649868, 66 Ci/mmole, 50 μl), and with various concentrations of compounds of the invention (50 μl) in triplicates; non-specific binding was determined in the presence of almorexant (10 μM).

The target of experiment [6] is T2, hOx2R. The experiment in a line: Radioligand binding assay, [3H]-SB649868, hOx2R. As to conditions: radioligand [3H]-SB649868, competition. Here is the method: as §2, §5, §6

22 compounds from patent US8530648B2, “Diaza-spiro[5.5]undecanes” (Novartis AG, priority 2009, dated 2013) can be followed below.

By Ki is commonly meant the dissociation constant of the complex between target and ligand, obtained from inhibition or displacement. By Kd is commonly meant the free concentration of one partner at which half of the binding sites on the other are occupied at equilibrium, for simple one-to-one binding. Higher therefore signals lower affinity.

T1 sequence (O43613 whole entry): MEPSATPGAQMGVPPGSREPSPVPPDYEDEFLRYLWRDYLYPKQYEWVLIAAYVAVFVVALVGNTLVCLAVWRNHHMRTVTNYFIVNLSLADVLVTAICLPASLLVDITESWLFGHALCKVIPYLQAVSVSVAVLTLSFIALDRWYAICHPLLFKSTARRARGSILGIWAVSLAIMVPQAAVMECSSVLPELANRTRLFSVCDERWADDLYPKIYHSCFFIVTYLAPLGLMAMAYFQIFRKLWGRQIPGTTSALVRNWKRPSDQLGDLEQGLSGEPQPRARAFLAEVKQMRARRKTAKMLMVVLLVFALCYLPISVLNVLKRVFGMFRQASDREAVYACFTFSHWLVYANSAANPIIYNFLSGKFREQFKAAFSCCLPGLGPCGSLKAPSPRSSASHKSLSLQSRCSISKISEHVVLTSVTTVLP
T2 sequence (O43614 whole entry): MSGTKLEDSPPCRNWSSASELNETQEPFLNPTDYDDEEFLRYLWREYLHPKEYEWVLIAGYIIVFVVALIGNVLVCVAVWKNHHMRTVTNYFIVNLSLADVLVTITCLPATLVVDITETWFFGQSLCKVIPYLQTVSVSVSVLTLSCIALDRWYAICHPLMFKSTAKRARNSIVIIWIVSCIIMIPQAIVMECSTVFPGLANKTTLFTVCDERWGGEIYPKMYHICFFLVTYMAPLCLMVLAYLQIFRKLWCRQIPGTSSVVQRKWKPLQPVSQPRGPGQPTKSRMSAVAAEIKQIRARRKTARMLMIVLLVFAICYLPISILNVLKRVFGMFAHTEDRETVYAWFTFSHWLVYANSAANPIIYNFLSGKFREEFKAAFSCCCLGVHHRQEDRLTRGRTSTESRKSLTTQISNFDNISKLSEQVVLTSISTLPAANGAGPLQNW

Regarding `O=C1N(Cc2cccc(Cl)c2)CCCC12CCN(c1cnc3ccccc3n1)CC2` [Example 27, 2-(3-chlorobenzyl)-9-(quinoxalin-2-yl)-2,9-diazaspiro[5.5]undecan-1-one], the Ki on hOx1R [1] was found to be 740 nM; on hOx2R [2], 84 nM. Further, the Kd at hOx1R [3] is 702 nM; on hOx2R [4] it was 169 nM.
`O=C1N(Cc2cccc(-c3cccnc3)c2)CCCC12CCN(c1cnc3ccccc3n1)CC2` [Example 5, 2-(3-(pyridin-3-yl)benzyl)-9-(quinoxalin-2-yl)-2,9-diazaspiro[5.5]undecan-1-one]: the Ki at hOx1R [1] was found to be 83 nM; on hOx2R [2], 22 nM. In addition, the values for the Kd at hOx1R [3] and at hOx2R [4] were 426 nM and 98 nM, respectively.
As to `O=C1N(Cc2ccccc2C(F)(F)F)CCCC12CCN(c1cnc3ccccc3n1)CC2` [Example 23, 9-(quinoxalin-2-yl)-2-(2-(trifluoromethyl)benzyl)-2,9-diazaspiro[5.5]undecan-1-one], the results for the inhibition constant Ki at hOx1R [1] and at hOx2R [2] were 2740 nM and 280 nM, respectively. In addition, the Kd worked out at 4480 nM at hOx1R [3] and 1090 nM at hOx2R [4].
On to `O=C1CCCC2(CCN(c3nc4ccccc4o3)CC2)N1Cc1cccc2[nH]ccc12` [Example 42, 1-((1H-indol-4-yl)methyl)-9-(benzo[d]oxazol-2-yl)-1,9-diazaspiro[5.5]undecan-2-one], for which the Ki at hOx1R [1] came out at 20 nM; at hOx2R [2] it was 3 nM. Besides, the values for the Kd at hOx1R [3] and at hOx2R [4] were 36 nM and 12 nM, respectively.
Consider `Cn1c(N2CCC3(CCCN(Cc4cccc5ccccc45)C3=O)CC2)nc2ccccc21` [Example 12, 9-(1-methyl-1H-benzo[d]imidazol-2-yl)-2-(naphthalen-1-ylmethyl)-2,9-diazaspiro[5.5]undecan-1-one], for which the figures for the Kd on hOx1R [3] and on hOx2R [4] were more than 10000 nM and 6100 nM, respectively.
Take `O=C1N(Cc2cccc(C(F)(F)F)c2)CCCC12CCN(c1cnc3ccccc3n1)CC2` [Example 14, 9-(quinoxalin-2-yl)-2-(3-(trifluoromethyl)benzyl)-2,9-diazaspiro[5.5]undecan-1-one]: the results for the Ki on hOx1R [1] and on hOx2R [2] were 948 nM and 112 nM, respectively. Also, the figures for the Kd at hOx1R [3] and at hOx2R [4] were 1380 nM and 211 nM, respectively.
For the compound `O=C1N(Cc2cccc(-c3ccccn3)c2)CCCC12CCN(c1cnc3ccccc3n1)CC2` [Example 54, 2-(3-(pyridin-2-yl)benzyl)-9-(quinoxalin-2-yl)-2,9-diazaspiro[5.5]undecan-1-one], the Ki is 420 nM on hOx1R [1] and 47 nM at hOx2R [2]. The figures for the Kd at hOx1R [3] and at hOx2R [4] were 634 nM and 175 nM, respectively.
Consider `Cc1cc2c(CN3CCCC4(CCN(c5cnc6ccccc6n5)CC4)C3=O)cccc2[nH]1` [Example 13, 2-((2-methyl-1H-indol-4-yl)methyl)-9-(quinoxalin-2-yl)-2,9-diazaspiro[5.5]undecan-1-one], for which the Ki came to 365 nM on hOx1R [1] and 35 nM at hOx2R [2]. For the same compound, the values for the Kd on hOx1R [3] and on hOx2R [4] were 776 nM and 62 nM, respectively.
On the same counts, the results for `Cc1ccc(C)c(CN2C(=O)CCCC23CCN(c2cnc4ccccc4n2)CC3)c1` [Example 41, 1-(2,5-dimethylbenzyl)-9-(quinoxalin-2-yl)-1,9-diazaspiro[5.5]undecan-2-one] are 77 nM, 16 nM, 100 nM and 36 nM.
For the compound `O=C1N(Cc2cccc3ccccc23)CCCC12CCN(c1cnc3ccccc3n1)CC2` [Example 2, 2-(naphthalen-1-ylmethyl)-9-(quinoxalin-2-yl)-2,9-diazaspiro[5.5]undecan-1-one], the Ki stood at 482 nM on hOx1R [1] and 30 nM on hOx2R [2]. The Kd was determined as 360 nM on hOx1R [3] and 34 nM on hOx2R [4].
Turning to `Cc1nc(-c2cccc(CN3CCCC4(CCN(c5cnc6ccccc6n5)CC4)C3=O)c2)no1` [Example 98, 2-(3-(5-methyl-1,2,4-oxadiazol-3-yl)benzyl)-9-(quinoxalin-2-yl)-2,9-diazaspiro[5.5]undecan-1-one], the Ki on hOx1R [1] was 425 nM; at hOx2R [2] it was 50 nM. Besides, the Kd came out at 980 nM on hOx1R [5] and 223 nM at hOx2R [6].
For `O=C1N(Cc2ccc3c(c2)OCCO3)CCCC12CCN(c1cnc3ccccc3n1)CC2` [Example 25, 2-((2,3-dihydrobenzo[b][1,4]dioxin-6-yl)methyl)-9-(quinoxalin-2-yl)-2,9-diazaspiro[5.5]undecan-1-one], the figures for the Kd on hOx1R [3] and at hOx2R [4] were 5250 nM and 3210 nM, respectively.
As for `O=C1N(Cc2ccnc(-n3cccn3)c2)CCCC12CCN(c1cnc3ccccc3n1)CC2` [Example 63, 2-((2-(1H-pyrazol-1-yl)pyridin-4-yl)methyl)-9-(quinoxalin-2-yl)-2,9-diazaspiro[5.5]undecan-1-one], the values for the Ki on hOx1R [1] and at hOx2R [2] were 900 nM and 83 nM, respectively. For the same compound, the Kd on hOx1R [5] came to 3820 nM; at hOx2R [6], 903 nM.
On the same counts, the results for `Cc1ccc(-n2nccn2)c(CN2CCCC3(CCN(c4cnc5ccccc5n4)CC3)C2=O)c1` [Example 125, 2-(5-methyl-2-(2H-1,2,3-triazol-2-yl)benzyl)-9-(quinoxalin-2-yl)-2,9-diazaspiro[5.5]undecan-1-one] are 2290 nM, 137 nM, 4990 nM and 324 nM.
For `O=C1CCCC2(CCN(c3cnc4ccccc4n3)CC2)N1Cc1c[nH]c2ccccc12` [Example 43, 1-((1H-indol-3-yl)methyl)-9-(quinoxalin-2-yl)-1,9-diazaspiro[5.5]undecan-2-one], the Ki on hOx1R [1] came to 236 nM; on hOx2R [2], 47 nM. In addition, the values for the Kd at hOx1R [5] and on hOx2R [6] were 205 nM and 196 nM, respectively.
`O=C1N(Cc2cccc(-c3cnccn3)c2)CCCC12CCN(c1cnc3ccccc3n1)CC2` [Example 65, 2-(3-(pyrazin-2-yl)benzyl)-9-(quinoxalin-2-yl)-2,9-diazaspiro[5.5]undecan-1-one]: the Ki at hOx1R [1] was 357 nM; on hOx2R [2], 23 nM. Also, the values for the Kd at hOx1R [5] and at hOx2R [6] were 1860 nM and 623 nM, respectively.
On to `O=C1N(Cc2cccc(-n3ccnn3)c2)CCCC12CCN(c1cnc3ccccc3n1)CC2` [Example 46, 2-(3-(1H-1,2,3-triazol-1-yl)benzyl)-9-(quinoxalin-2-yl)-2,9-diazaspiro[5.5]undecan-1-one], for which the Ki at hOx1R [1] worked out at 1100 nM; on hOx2R [2], 247 nM. Besides, the figures for the Kd on hOx1R [5] and at hOx2R [6] were 1290 nM and 473 nM, respectively.
On to `O=C1N(Cc2c[nH]c3ccccc23)CCCC12CCN(c1cnc3ccccc3c1)CC2` [Example 48, 2-((1H-indol-3-yl)methyl)-9-(quinolin-3-yl)-2,9-diazaspiro[5.5]undecan-1-one], for which the Ki at hOx1R [1] was 1040 nM; on hOx2R [2], 32 nM. For the same compound, the Kd on hOx1R [5] came to 1840 nM; at hOx2R [6], 147 nM.
`Cc1noc(-c2ccccc2CN2CCCC3(CCN(c4cnc5ccccc5n4)CC3)C2=O)n1` [Example 39, 2-(2-(3-methyl-1,2,4-oxadiazol-5-yl)benzyl)-9-(quinoxalin-2-yl)-2,9-diazaspiro[5.5]undecan-1-one]: the Ki at hOx1R [1] amounted to 1420 nM; on hOx2R [2] it was 25 nM. The Kd at hOx1R [5] was determined as 2770 nM; at hOx2R [6], 243 nM.
Take `O=C1N(Cc2ccc3ccccc3c2)CCCC12CCN(c1cnc3ccccc3n1)CC2` [Example 7, 2-(naphthalen-2-ylmethyl)-9-(quinoxalin-2-yl)-2,9-diazaspiro[5.5]undecan-1-one]: the Kd is more than 10000 nM on hOx1R [3] and 9870 nM at hOx2R [4].
For the compound `O=C1N(Cc2ccc(C(F)(F)F)cc2)CCCC12CCN(c1cnc3ccccc3n1)CC2` [Example 24, 9-(quinoxalin-2-yl)-2-(4-(trifluoromethyl)benzyl)-2,9-diazaspiro[5.5]undecan-1-one], the Kd at hOx1R [3] was more than 10000 nM; at hOx2R [4], 5240 nM.
On to `O=C1N(Cc2cccc(-n3cccn3)n2)CCCC12CCN(c1cnc3ccccc3n1)CC2` [Example 83, 2-((6-(1H-pyrazol-1-yl)pyridin-2-yl)methyl)-9-(quinoxalin-2-yl)-2,9-diazaspiro[5.5]undecan-1-one], for which the Ki at hOx1R [1] was determined as 1730 nM; at hOx2R [2], 80 nM. The Kd is 2760 nM at hOx1R [5] and 364 nM at hOx2R [6].
